Data taken from publication PMC5384777, “Three new C-27-carboxylated-lupane-triterpenoid derivatives from Potentilla discolor Bunge and their in vitro antitumor activities” (PLoS ONE, 2017).
Several values for one entry are separate records, joined by “and”; a condition that tells them apart may be missing. Identical values can stand only once. Like-named read-outs stand apart in the source and are kept apart here.

Legend:
HepG-2 = test: CCK-8 cytotoxicity assay, HepG-2; assay type: cell-based, human; conditions: for IC50: Homo sapiens, read-out: Cytotoxicity (IC50) HepG-2
Procedure: (§1) The cytotoxic effects of Compounds 1–3 were estimated in vitro against HepG-2, MCF-7 and T-84 tumor cell lines by Cell Counting Kit-8 assay. Briefly, the cells were seeded into 96-well plates in triplicate at an initial number of 5,000 cells per well and cultured at 37°C, 5% CO2 for 24h, then treated with 0, 15, 20, 25, 30 μM of samples for another 24h. Ten microliters of the kit reagent was added to each well, and 2 h after all plates were scanned by a microplate reader (Thermo Fisher Scientific) at 450 nm. Cell cytotoxicity was calculated on the basis of absorbency.

MCF-7 = test: CCK-8 cytotoxicity assay, MCF-7; assay type: cell-based; conditions: Homo sapiens, read-out: Cytotoxicity (IC50) MCF-7
Procedure: as §1

T-84 = test: CCK-8 cytotoxicity assay, T-84; assay type: cell-based; conditions: Homo sapiens, read-out: Cytotoxicity (IC50) T-84
Procedure: as §1

in vitro = assay type: cell-based; conditions: human
Procedure: as §1

HepG-2 cells [1] = test: Annexin V-FITC/propidium iodide apoptosis analysis; assay type: cell-based, human; conditions: 24 h
Procedure: The method for apoptosis analysis referred to the literature. Apoptosis was discriminated with the annexin V-FITC/propidium iodide test. Cells were seeded at 3 × 10^5/well in 10% FBS-DMEM into 6-well plates, and treated with Compound 1 with various concentrations. The cells were washed twice with cold Phosphate Buffered Saline (PBS) and then resuspended in 1 × Binding Buffer (0.1 M Hepes/NaOH (pH 7.4), 1.4 M NaCl, 25 mM CaCl2) at a concentration of 1 × 10^6 cells/mL. 100 μL of the solution (1 × 10^5 cells) was transferred to a 5 mL culture tube, and 5 μL of FITC Annexin V (BD, Pharmingen) and 5 μL of propidium iodide (PI) were added to each tube. The cells were gently vortexed and incubated at 25°C for 15 min in the dark. Then 200 μL of PBS was added to each tube. Analysis was performed with the system software (Cell Quest; BD Biosciences). The percentage of cells positive for PI and/or Annexin V-FITC was reported inside the quadrants. Lower left quadrant, viable cells (annexin V-/PI-); lower right quadrant, early apoptotic cells (annexin V+/PI-); upper right quadrant, late apoptotic cells (annexin V+/PI+); upper left quadrant, necrotic cells (annexin V-/PI+).

HepG-2 cells [2] = test: Intracellular ROS assay (DCFH-DA); assay type: cell-based, human; conditions: 24 h, control 10.6%
Procedure: HepG-2 cells were seeded into 6-well plates for 24 h and subjected to various treatments. Then, the cells were cultured in a […] medium solution containing […] DCFH-DA (Beyotime, Haimen, China) at 37°C for 30 min in dark, and then with 3 times PBS washes. Cellular fluorescence was quantified under Nikon ECLIPSETE2000-S fluorescence microscope at 485 nm excitation and 538 nm emission.

HepG-2 cells [3] = test: Mitochondrial membrane potential (JC-1) staining; assay type: cell-based, human; conditions: 15 μM, 24 h
cytochrome c = test: Western blot, cytochrome c; assay type: cell-based, human; conditions: HepG-2, 0, 15 and 30 μM, 24 h
Procedure: (§2) HepG-2 cells were collected after treatments with Compound 1 (0, 15 and 30 μM) for 24 h and then lysed in ice-cold RIPA buffer (1×PBS, 1% NP-40, 0.5% sodium deoxycholate and 0.1% SDS) which containing 100 μg/mL PMSF, 5 μg/mL Aprotinin, 5 μg/mL Leupeptin, 5 μg/mL Pepstatin and 100 μg/mL NaF. After centrifugation at 12,000 rpm for 10 min, the protein in the supernatant was quantified by the Bradford method using Multimode varioscan instrument (Thermo Fischer Scientifics). 30 μg protein per lane was applied in 12% SDS polyacrylamide gel. After electrophoresis, the protein was transferred to a polyvinylidine difluoride (PVDF) membrane (Amersham Biosciences). The membrane was blocked in TBST containing 5% blocking powder (Santacruz) at room temperature for 2 h. The membrane was washed with TBST for 5 min, and primary antibody (Bax, Bcl-2, cytochrome c, caspase-9, -3) was added and incubated at 4°C overnight (O/N). After three washes in TBST, the membrane was cultivated with corresponding horseradish peroxidase-labeled secondary antibody (1:20000) (Santa Cruz) at room temperature for 1 h. Membranes were rinsed with TBST for three times, 15 min each, and the protein blots were visualized with chemiluminescence reagent (Thermo Fischer Scientifics Ltd.). The X-ray films were developed with developer and fixed with fixer solution.

Bax = test: Western blot, Bax; assay type: cell-based, human; conditions: HepG-2, 15 and 30 μM, 24 h, compared with control
Procedure: as §2

Bcl-2 = test: Western blot, Bcl-2; assay type: cell-based, human; conditions: HepG-2, 15 and 30 μM, 24 h, compared with control
Procedure: as §2

caspase-9 = test: Western blot, caspase-9; assay type: cell-based, human; conditions: HepG-2, 15 and 30 μM, 24 h
Procedure: as §2

caspase-3 = test: Western blot, caspase-3; assay type: cell-based, human; conditions: HepG-2, 15 and 30 μM, 24 h
Procedure: as §2

HepG-2 cells [4] = test: Hoechst 33258 staining; assay type: cell-based, human; conditions: 15 and 30 μM, 24 h
Procedure: HepG-2 cells grown on a sterile cover slip in 6-well plates were treated with Compound 1 for 24 h. The culture medium containing Compound was removed, and the cells were fixed in 4% paraformaldehyde for 10 min. After two PBS washes, the cells were stained with 0.5 mL of Hoechst 33258 (Beyotime, Haimen, China) for 5 min and again two PBS washes. The stained nuclei were viewed using a Nikon ECLIPSETE2000-S fluorescence microscope (OLYMPUS Co., Japan) under 350 nm excitation and 460 nm emissions.

HepG-2 cells [5] = test: AO/EB staining; assay type: cell-based, human; conditions: 15 and 30 μM, 24 h
Procedure: HepG-2 cells were seeded on a sterile cover slip in 6-well tissue culture plates at a concentration of 5 ×10^4 cell/mL in a volume of 2 mL. Following incubation, the medium was removed and replaced with fresh medium plus 10% fetal bovine serum and supplemented with concentrations of Compound 1 for 24 h. After the treatment period, the cover slip with monolayer cells was inverted on a grass slide with 10 μL of AO/EB stain ([…]). Fluorescence was read on a Nikon ECLIPSETE2000-S fluorescence microscope.

## O=C1CCC[C@@H]2[C@H]3CCCN4CCC[C@@H](CN12)[C@@H]34 [Matrine, reference compound]
HepG-2; HepG2, CCK-8, 24 h treatment, n = 3
  IC50: 30.9 ± 2.28 µM
MCF-7; MCF7, CCK-8, 24 h treatment, n = 3
  IC50: 35.5 ± 2.92 µM
T-84; T84, CCK-8, 24 h treatment, n = 3
  IC50: 32.8 ± 2.95 µM

## CC(=O)OC1CCC2(C)C(CCC3(C)C2CCC2C4C(C(C)C=O)CCC4(C)CCC23C(=O)O)C1(C)C (stereo not drawn) [Compound 3, 3α-acetyl-19α-hydrogen-29-aldehyde-27-lupanoic acid]
HepG-2; HepG2, 24 h
  IC50: 25.3 ± 1.87 µM
MCF-7; MCF7, 24 h
  IC50: 35.4 ± 1.52 µM
T-84; T84, 24 h
  IC50: 40.6 ± 3.64 µM
other
  melting point: 200 to 201 °C

## CC(C=O)C1CCC2(C)CCC3(C(=O)O)C(CCC4C5(C)CCC(O)C(C)(C)C5CCC43C)C12 (stereo not drawn) [Compound 1, 3α-hydroxy-19α-hydrogen-29-aldehyde-27-lupanoic acid]
HepG-2; 35 μM
  survival rate of HepG-2: 9.50%
HepG-2; HepG2, 24 h
  IC50: 17.8 ± 1.21 µM
MCF-7; MCF7, 24 h
  IC50: 30.8 ± 1.88 µM
T-84; T84, 24 h
  IC50: 27.9 ± 1.96 µM
In vitro
  viability at 24 h, 35 µM: > 90%
HepG-2 cells [1]; 15 μM
  early apoptosis rate (annexin V+/PI-, LR): 6.96%
  late apoptosis rate (annexin V+/PI+, UR): 4.27%
HepG-2 cells [1]; 20 μM
  late apoptosis rate (annexin V+/PI+, UR): 10.61%
HepG-2 cells [1]; 25 μM
  early apoptosis rate (annexin V+/PI-, LR): 20.05%
  late apoptosis rate (annexin V+/PI+, UR): 14.30%
HepG-2 cells [1]; 30 μM
  early apoptosis rate (annexin V+/PI-, LR): 23.69%
  late apoptosis rate (annexin V+/PI+, UR): 22.93%
HepG-2 cells [1]
  early apoptosis rate (annexin V+/PI-, LR): 16.14%
HepG-2 cells [1]; Homo sapiens, HepG2, 15 μM, read-out: viable cells (annexin V-/PI-, LL)
  viability at 15 µM: 88.7%
HepG-2 cells [1]; Homo sapiens, HepG2, 20 μM, read-out: viable cells (annexin V-/PI-, LL)
  viability at 20 µM: 72.9%
HepG-2 cells [1]; Homo sapiens, HepG2, 25 μM, read-out: viable cells (annexin V-/PI-, LL)
  viability at 25 µM: 64.8%
HepG-2 cells [1]; Homo sapiens, HepG2, 30 μM, read-out: viable cells (annexin V-/PI-, LL)
  viability at 30 µM: 52%
HepG-2 cells [2]; 15 μM
  ROS level: 23.5%
HepG-2 cells [2]; 30 μM
  ROS level: 46.8%
HepG-2 cells [3]
  ΔΨm reduced to, of control: 69.1%
Cytochrome c
  cytochrome c level in the cytosol: gradually improved
Bax
  Bax level: significant increase
Bcl-2
  expression of Bcl-2: inhibition on the expression
caspase-9
  cleavage of caspase-9: significantly induced cleavage
caspase-3
  cleavage of caspase-3: significantly induced cleavage
HepG-2 cells [4]
  apoptotic cells by Hoechst 33258 staining: apoptotic cells increased gradually in a dose-dependent manner
HepG-2 cells [5]
  apoptosis by AO/EB staining: able to induce apoptosis
other
  melting point: 200 to 201 °C and 201 to 202 °C

## CC(C=O)[C@@H]1CC[C@]2(C)CC[C@]3(C(=O)O)C(CCC4[C@@]5(C)CC[C@@H](O)C(C)(C)C5CC[C@]43C)C12 (stereo partly drawn) [Compound 2, 3α-hydroxy-19β-hydrogen-29-aldehyde-27-lupanoic acid]
HepG-2; HepG2, 24 h
  IC50: 18.2 ± 1.94 µM
MCF-7; MCF7, 24 h
  IC50: 31 ± 1.83 µM
T-84; T84, 24 h
  IC50: 27.9 ± 0.99 µM
